ChEMBL document CHEMBL1131422, “N-(2-Benzoylphenyl)-L-tyrosine PPARgamma agonists. 1. Discovery of a novel series of potent antihyperglycemic and antihyperlipidemic agents” (J Med Chem, 1998)
The source made the active and inactive calls. The rule behind the calls is not given here.

Key:
[1] = molecular target: T1, Peroxisome proliferator-activated receptor gamma (Homo sapiens, UniProt P37231)
T1 sequence (P37231 whole entry): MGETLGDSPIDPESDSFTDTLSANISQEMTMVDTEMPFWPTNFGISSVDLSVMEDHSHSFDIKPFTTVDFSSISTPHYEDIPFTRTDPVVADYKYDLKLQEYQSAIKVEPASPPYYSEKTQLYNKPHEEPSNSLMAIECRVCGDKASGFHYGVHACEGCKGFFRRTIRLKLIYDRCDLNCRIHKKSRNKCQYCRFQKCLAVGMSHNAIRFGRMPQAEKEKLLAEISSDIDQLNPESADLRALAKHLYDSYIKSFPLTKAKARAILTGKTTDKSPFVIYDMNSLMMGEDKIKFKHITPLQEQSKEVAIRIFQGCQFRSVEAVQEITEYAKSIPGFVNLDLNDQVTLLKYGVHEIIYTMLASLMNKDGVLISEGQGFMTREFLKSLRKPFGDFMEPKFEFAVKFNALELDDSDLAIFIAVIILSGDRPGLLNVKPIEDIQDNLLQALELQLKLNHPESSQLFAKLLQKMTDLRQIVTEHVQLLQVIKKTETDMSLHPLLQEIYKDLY
Description: Activation of peroxisome proliferator activated receptor gamma measured by induction of 50% of maximum alkaline phosphatase activity, transfection assay in CV-1 cells

[2] = molecular target: T2, Peroxisome proliferator-activated receptor gamma (Homo sapiens) (UniProt P37231); test: Compound was tested functionally in vitro for inducing 50% of the maximum alkaline phosphatase activity (Transactivation) against Peroxisome proliferator activated receptor gamma using transfection assay in CV-1 cells; IA = Inactive at 10e-4 M; type: functional, cell-based
T2 sequence (whole entry): T1 sequence (P37231 whole entry)

[3] = molecular target: T1, Peroxisome proliferator-activated receptor gamma; remark: listed apart in the source
Description: In vitro binding to peroxisome proliferator activated receptor gamma (PPAR gamma) using [3H]-BRL 49653 as radioligand in scintillation proximity assay (SPA)

Row | Compound | EC50 [1] [µM] | Log EC50 [2] | Ki [3] [µM]
1 | CN(CCOc1ccc(CC(Nc2ccccc2C(O)c2ccccc2)C(=O)O)cc1)c1ccccn1 (stereo unspecified) | 0.447 | – | –
2 | O=C(O)[C@H](Cc1ccc(OCc2ccccc2)cc1)Nc1ccccc1Cc1ccccc1 | – | inactive | > 3.16
3 | O=C(c1ccccc1)c1ccc(N[C@@H](Cc2ccc(OCc3ccccc3)cc2)C(=O)O)cc1 | – | inactive | 1.26
4 | O=C(c1ccccc1)c1cccc(N[C@@H](Cc2ccc(OCc3ccccc3)cc2)C(=O)O)c1 | – | inactive | > 3.16
5 | COC(=O)[C@H](Cc1ccc(OCc2ccccc2)cc1)Nc1ccccc1C(=O)OCc1ccccc1 | – | inactive | > 3.16
6 | CC(/C=C(\O)c1ccccc1)=N\[C@@H](Cc1ccc(OCc2ccccc2)cc1)C(=O)O (stereo in doubt) | 21.9 | – | > 3.16
7 | N[C@@H](Cc1ccc(OCc2ccccc2)cc1)C(=O)O | 2.51 | – | > 3.16
8 | CC(/C=C(\O)c1ccccc1)=N\[C@@H](Cc1ccc(OCc2ccccc2)cc1)C(N)=O | 0.49 | – | 1.32
9 | COC(=O)[C@H](Cc1ccc(OCc2ccccc2)cc1)/N=C(\C)C1=C(O)c2ccccc2CC1 | – | inactive | > 3.16
10 | C/C(O)=C/C(C)=N/[C@@H](Cc1ccc(OCc2ccccc2)cc1)C(=O)O | – | inactive | 1.95
11 | COC(=O)[C@H](Cc1ccc(OCc2ccccc2)cc1)Nc1ccccc1C(=O)Nc1ccccc1 | – | inactive | > 3.16

The next lines start with the values.

Row | EC50 [1] [µM] | Log EC50 [2] | Ki [3] [µM] | Compound
12 | 0.00912 | – | 0.00525 | Cc1c(C)c2c(c(C)c1O)CCC(C)(COc1ccc(C[C@H](Nc3ccccc3C(=O)c3ccccc3)C(=O)O)cc1)O2 (stereo partly specified)
13 | 0.00316 | – | 0.00427 | Cc1oc(-c2ccccc2)nc1CCOc1ccc(CC2SC(=O)NC2=O)cc1 (stereo unspecified)
14 | 0.692 | – | 0.759 | COC(=O)[C@H](Cc1ccc(OCc2ccccc2)cc1)/N=C(C)/C=C(\O)c1ccccc1
15 | 0.49 | – | 0.0851 | CN(CCOc1ccc(CC(Nc2cccc3c2C(=O)c2ccccc2-3)C(=O)O)cc1)c1nc2ccccc2o1 (stereo unspecified)
16 | 0.933 | – | 0.0324 | CN(CCOc1ccc(CC(Oc2ccccc2C(=O)c2ccccc2)C(=O)O)cc1)c1nc2ccccc2o1 (stereo unspecified)
17 | 0.851 | – | 0.162 | CN(CCOc1ccc(CC(Nc2ccccc2/C(=N/N)c2ccccc2)C(=O)O)cc1)c1ccccn1 (stereo unspecified)
18 | 1.82 | – | 0.123 | CN(CCOc1ccc(CC(Nc2ccccc2S(=O)(=O)c2ccccc2)C(=O)O)cc1)c1nc2ccccc2o1 (stereo unspecified)
19 | 0.107 | – | 0.00372 | CN(CCOc1ccc(CC(Nc2ccccc2Oc2ccccc2)C(=O)O)cc1)c1nc2ccccc2o1 (stereo unspecified)
20 | 0.0288 | – | 0.00331 | CN(CCOc1ccc(CC(Nc2ccccc2C(=O)Cc2ccccc2)C(=O)O)cc1)c1nc2ccccc2o1 (stereo unspecified)
21 | 0.617 | – | 0.0513 | CC1(COc2ccc(C[C@H](Nc3ccccc3C(=O)c3ccccc3)C(=O)O)cc2)CCCCC1
22 | 0.0501 | – | 0.00646 | CCc1ccc(CCOc2ccc(C[C@H](Nc3ccccc3C(=O)c3ccccc3)C(=O)O)cc2)nc1
23 | 1.38 | – | 0.0331 | CN(CCOc1ccc(CC(Sc2ccccc2C(=O)c2ccccc2)C(=O)O)cc1)c1nc2ccccc2o1 (stereo unspecified)
24 | 0.229 | – | 0.0117 | CC(/C=C(\O)c1ccccc1)=N\[C@@H](Cc1ccc(OCc2ccccc2)cc1)C(=O)O (stereo in doubt; 2)
25 | 10.2 | – | 0.794 | O=C(O)[C@H](Cc1ccc(OCc2ccccc2)cc1)/N=C1\CCCC\C1=C(\O)c1ccccc1
26 | 16.6 | – | 0.162 | O=C(c1ccccc1)c1ccccc1N[C@@H](Cc1ccc(OCc2ccccc2)cc1)C(=O)O
